Results from patent US20170152226A1, “FUNCTIONALISED AND SUBSTITUTED INDOLES AS ANTI-CANCER AGENTS” (Novogen Ltd., priority 2014, published 2017).

Experiments:
Assay type in all cases: cell-based
A549 = assay: Anti-proliferative activity, cell-titre luminescent viability assay; settings: Homo sapiens, A549, 72 h, 0.03, 0.3, 3 and 30 μM, linear regression of semi-log plots, read-out: IC50 Lung (NSLC) A549
In short: (§1)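 Cells attached for 24 h at 37° C, 5% CO2, then received compound (0.03, 0.3, 3, 30 μM, or 0.1–30 μM in six steps) for 72 h. Viability was read by cell-titre luminescence after 30 min and normalized to untreated or vehicle control. IC50 came from linear regression of semi-log plots, or EC50 from variable-slope sigmoidal nonlinear regression, depending on compound.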

CaCo2 = assay: as above; settings: Homo sapiens, Caco-2, 72 h, 0.03, 0.3, 3 and 30 μM, linear regression of semi-log plots, read-out: IC50 Colorectal CaCo2
In short: as §1

DU145 = assay: as above; settings: Homo sapiens, DU-145, 72 h, 0.03, 0.3, 3 and 30 μM, linear regression of semi-log plots, read-out: IC50 Prostate DU145
In short: as §1

MDA-MB-231 = assay: as above; settings: Homo sapiens, MDA-MB-231, 72 h, 0.03, 0.3, 3 and 30 μM, linear regression of semi-log plots, read-out: IC50 Breast MDA-MB-231
In short: as §1

PC3 = assay: as above; settings: Homo sapiens, PC-3, 72 h, 0.03, 0.3, 3 and 30 μM, linear regression of semi-log plots, read-out: IC50 Prostate PC3
In short: as §1

SK-Mel-28 = assay: as above; settings: Homo sapiens, SK-MEL-28; 72 hours; 0.03, 0.3, 3 and 30 μM; linear regression of semi-log plots; read-out: IC50 Melanoma SK-Mel-28
In short: as §1

SK-N-SH = assay: as above; settings: Homo sapiens, SK-N-SH, 72 h, 0.03, 0.3, 3 and 30 μM, linear regression of semi-log plots, read-out: IC50 Neuroblastoma SK-N-SH
In short: as §1

IFN-γ = assay: Inhibition of cytokine release from PBMCs (HTRF); settings: PBMC, human PBMCs, PMA and ionomycin stimulated
Method: (§2) The ability of compounds 3507, 3520, 3534 and 3538 to inhibit the release of cytokines TNF-α, IFN-γ, IL-6, IL-21, IL-17A and IL-23 was evaluated in vitro (Tables 4 and 5). Briefly, human peripheral blood mononuclear cells (PBMCs) were isolated from human peripheral blood by Histopaque density gradient centrifugation. The freshly isolated PBMCs were seeded at 50,000 cells/well in a 96-well half area plate. PBMCs were dosed with the test compounds (at 10 μM, 1 μM and 0.1 μM) and then incubated at 37° C. and 5% CO2 for 2 hours. To stimulate release of the cytokines IFN-γ, IL-21, IL-17A and IL-23, the PBMCs were treated with 50 ng/mL of phorbol 12-myristate 13-acetate (PMA) and 1 μg/mL of ionomycin and to stimulate the release of TNF-α and IL-6, PBMCs were treated with 100 ng/mL of lipopolysaccharide (LPS) from gram-negative bacteria. The PBMCs were then incubated at 37° C. and 5% CO2 for a further 6 hours and the cell supernatant was collected and a Homogenous Time Resolved Fluorescence (HTRF) assay was carried out following the manufacturer's instructions. Cytokine release from the PBMCs was captured using a Perkin Elmer ENVISION 2104 microplate reader set at 615 nm and 665 nm respectively.

IL-17A = assay: Inhibition of cytokine release from PBMCs (HTRF); settings: PBMC, human PBMCs, PMA and ionomycin stimulated
Method: as §2

IL-21 = assay: Inhibition of cytokine release from PBMCs (HTRF); settings: PBMC, human PBMCs, PMA and ionomycin stimulated
Method: as §2

IL-23 = assay: Inhibition of cytokine release from PBMCs (HTRF); settings: PBMC, human PBMCs, PMA and ionomycin stimulated
Method: as §2

IL-6 = assay: Inhibition of cytokine release from PBMCs (HTRF); settings: PBMC, human PBMCs, LPS stimulated
Method: as §2

TNF-α = assay: Inhibition of cytokine release from PBMCs (HTRF); settings: PBMC, human PBMCs, LPS stimulated
Method: as §2

Cc1c(C)n(CCCN2CCN(C)CC2)c2ccc(Oc3cccc(C(=O)N4CCN(CCc5ccc(F)cc5)CC4)c3)cc12 [Compound 3507, (3-((2,3-dimethyl-1-(3-(4-methylpiperazin-1-yl)propyl)-1H-indol-5-yl)oxy)phenyl)(4-(4-fluorophenethyl)piperazin-1-yl)methanone]
IC50 (A549): 1.2 µM
IC50 (CaCo2): 2.5 µM
IC50 (DU145): 1.3 µM
IC50 (MDA-MB-231): 1.4 µM
IC50 (PC3): 1.2 µM
IC50 (SK-Mel-28): 1 µM
IC50 (SK-N-SH): 1.4 µM
inhibition at 0.1 µM (IFN-γ; 0.1 μM): 16%
inhibition at 1 µM (IFN-γ; 1 μM): 42%
inhibition at 10 µM (IFN-γ; 10 μM): 77%
inhibition at 0.1 µM (IL-17A; 0.1 μM): 2%
inhibition at 1 µM (IL-17A; 1 μM): 4%
inhibition at 10 µM (IL-17A; 10 μM): 13%
inhibition at 0.1 µM (IL-21; 0.1 μM): -6%
inhibition at 1 µM (IL-21; 1 μM): 5%
inhibition at 10 µM (IL-21; 10 μM): 19%
inhibition at 0.1 µM (IL-23; 0.1 μM): -7%
inhibition at 1 µM (IL-23; 1 μM): 0%
inhibition at 10 µM (IL-23; 10 μM): 20%
inhibition at 0.1 µM (IL-6; 0.1 μM): -9%
inhibition at 1 µM (IL-6; 1 μM): 21%
inhibition at 10 µM (IL-6; 10 μM): 68%
inhibition at 0.1 µM (TNF-α; 0.1 μM): 52%
inhibition at 1 µM (TNF-α; 1 μM): 68%
inhibition at 10 µM (TNF-α; 10 μM): 90%
